Laboratory results taken from ChEMBL document CHEMBL5257124, “Design, synthesis and biological evaluation of novel indole-piperazine derivatives as antibacterial agents” (Bioorg Med Chem Lett, 2023).
In brackets after ≈: the same amount, converted by molar mass. Activity calls are given as the source filed them. The rule behind the calls is not given here.

Columns and labels:
Staphylococcus aureus [1] = experiment: Antibacterial activity against methicillin resistant Staphylococcus aureus ATCC 33591 assessed as reduction in bacterial growth; assay type: functional
Bacillus cereus = experiment: Antibacterial activity against Bacillus cereus assessed as reduction in bacterial growth; assay type: functional
Ralstonia solanacearum = experiment: Antibacterial activity against Ralstonia solanacearum assessed as bacterial growth inhibition; assay type: functional
Pseudomonas syringae = experiment: Antibacterial activity against Pseudomonas syringae pv. actinidiae assessed as bacterial growth inhibition; assay type: functional
Escherichia coli [2] = experiment: Antibacterial activity against Escherichia coli ATCC 25922 assessed as reduction in bacterial growth; assay type: functional
Staphylococcus aureus [3] = experiment: Antibacterial activity against Staphylococcus aureus ATCC 25923 assessed as reduction in bacterial growth; assay type: functional
Escherichia coli [4] = experiment: Bactericidal activity against Escherichia coli ATCC 25922 assessed as reduction in bacterial growth; assay type: functional
Staphylococcus aureus [5] = experiment: Antibacterial activity against methicillin resistant Staphylococcus aureus assessed as reduction in bacterial growth at 16 microg/ml measured for 2 hrs; assay type: functional; settings: dose 16 µg/ml
Staphylococcus aureus [6] = experiment: Antibacterial activity against methicillin resistant Staphylococcus aureus assessed as reduction in bacterial growth at 8 times MIC measured at 24 hrs by time kill assay; assay type: functional, organism-based
Staphylococcus aureus [7] = experiment: Bactericidal activity against methicillin resistant Staphylococcus aureus ATCC 33591 assessed as reduction in bacterial growth; assay type: functional
Staphylococcus aureus [8] = experiment: Bactericidal activity against Staphylococcus aureus ATCC 25923 assessed as reduction in bacterial growth; assay type: functional
Staphylococcus aureus [9] = experiment: Antibacterial activity against methicillin resistant Staphylococcus aureus assessed as reduction in bacterial growth at 1 times MIC by time kill assay; assay type: functional, organism-based
Staphylococcus aureus [10] = experiment: Drug resistance against Staphylococcus aureus assessed as fold increase in MIC measured after 19 passaging for 19 days; assay type: functional; settings: time 19 day
Staphylococcus aureus [11] = experiment: Antibacterial activity against methicillin resistant Staphylococcus aureus assessed as reduction in bacterial growth at 8 microg/ml measured for 2 hrs; assay type: functional; settings: dose 8 µg/ml
PC-12 = experiment: Cytotoxicity against rat PC12 cells assessed as inhibition of cell growth at 20 to 50 microg/ml measured for 24 hrs by MTT assay; assay type: toxicity, cell-based; settings: pc-12, 24 h, dose 20-50 µg/ml
BV-2 = experiment: Cytotoxicity against mouse BV-2 cells assessed as inhibition of cell growth at 20 to 50 microg/ml measured for 24 hrs by MTT assay; assay type: toxicity, cell-based; settings: bv-2, 24 h, dose 20-50 µg/ml
Staphylococcus aureus [12] = experiment: Antibacterial activity against methicillin resistant Staphylococcus aureus assessed as reduction in bacterial growth at 1 microg/ml measured for 2 hrs; assay type: functional; settings: dose 1 µg/ml
Staphylococcus aureus [13] = experiment: Antibacterial activity against methicillin resistant Staphylococcus aureus assessed as reduction in bacterial growth at 8 times MIC measured at 12 hrs by time kill assay; assay type: functional; design: scale not given: the % may be the effect or the level left
Staphylococcus aureus [14] = experiment: Antibacterial activity against methicillin resistant Staphylococcus aureus assessed as reduction in bacterial growth at 2 microg/ml measured for 2 hrs; assay type: functional; settings: dose 2 µg/ml
Staphylococcus aureus [15] = experiment: Antibacterial activity against methicillin resistant Staphylococcus aureus assessed as reduction in bacterial growth at 0.5 microg/ml measured for 2 hrs; assay type: functional; settings: dose 0.5 µg/ml

SMILES: Clc1ccc(CN2CCN(Cc3c[nH]c4ccc(Cl)cc34)CC2)c(Cl)c1
- MIC (Staphylococcus aureus [1]): 8 µg/mL (≈ 19.6 µM)
- MIC (Bacillus cereus): 8 µg/mL (≈ 19.6 µM)
- MIC (Ralstonia solanacearum): 16 µg/mL (≈ 39.1 µM)
- MIC (Pseudomonas syringae): 32 µg/mL (≈ 78.3 µM)
- MIC (Escherichia coli [2]): 16 µg/mL (≈ 39.1 µM)
- MIC (Staphylococcus aureus [3]): 8 µg/mL (≈ 19.6 µM)

SMILES: Cn1cc(CN2CCN(Cc3ccc(C(F)(F)F)cc3N3CCCC3)CC2)c2cc([N+](=O)[O-])ccc21
- MIC (Staphylococcus aureus [1]): 128 µg/mL (≈ 255 µM)
- MIC (Bacillus cereus): 128 µg/mL (≈ 255 µM)
- MIC (Ralstonia solanacearum): 128 µg/mL (≈ 255 µM)
- MIC (Pseudomonas syringae): 128 µg/mL (≈ 255 µM)
- MIC (Escherichia coli [2]): 128 µg/mL (≈ 255 µM)
- MIC (Staphylococcus aureus [3]): 128 µg/mL (≈ 255 µM)

SMILES: Fc1ccc2[nH]cc(CN3CCN(Cc4ccc(Cl)cc4Cl)CC3)c2c1
- MIC (Staphylococcus aureus [1]): 8 µg/mL (≈ 20.4 µM)
- MIC (Bacillus cereus): 8 µg/mL (≈ 20.4 µM)
- MIC (Ralstonia solanacearum): 32 µg/mL (≈ 81.6 µM)
- MIC (Pseudomonas syringae): 32 µg/mL (≈ 81.6 µM)
- MIC (Escherichia coli [2]): 32 µg/mL (≈ 81.6 µM)
- MIC (Staphylococcus aureus [3]): 8 µg/mL (≈ 20.4 µM)

SMILES: Cn1cc(CN2CCN(Cc3ccc(Cl)cc3Cl)CC2)c2cc(Cl)ccc21
- MBC (Escherichia coli [4]): 16 µg/mL (≈ 37.8 µM)
- MIC (Staphylococcus aureus [1]): 4 µg/mL (≈ 9.46 µM)
- PAE (Staphylococcus aureus [5]): 2.21 h
- Activity (Staphylococcus aureus [6]): Active
- MBC (Staphylococcus aureus [7]): 8 µg/mL (≈ 18.9 µM)
- MBC (Staphylococcus aureus [8]): 8 µg/mL (≈ 18.9 µM)
- Activity (Staphylococcus aureus [9]): Active
- MIC (Bacillus cereus): 4 µg/mL (≈ 9.46 µM)
- MIC (Ralstonia solanacearum): 8 µg/mL (≈ 18.9 µM)
- fold change (FC) (Staphylococcus aureus [10]): <4
- PAE (Staphylococcus aureus [11]): 1.6 h
- MIC (Pseudomonas syringae): 8 µg/mL (≈ 18.9 µM)
- MIC (Escherichia coli [2]): 16 µg/mL (≈ 37.8 µM)
- Activity (PC-12): Non-Toxic
- MIC (Staphylococcus aureus [3]): 4 µg/mL (≈ 9.46 µM)
- Activity (BV-2): Non-Toxic

SMILES: O=C(O)c1cn(C2CC2)c2cc(N3CCNCC3)c(F)cc2c1=O [CIPROFLOXACIN]
- MBC (Escherichia coli [4]): 1 µg/mL (≈ 3.02 µM)
- MIC (Staphylococcus aureus [1]): 0.5 µg/mL (≈ 1.51 µM)
- PAE (Staphylococcus aureus [12]): 1.22 h
- Activity (Staphylococcus aureus [6]): Active
- MBC (Staphylococcus aureus [7]): 2 µg/mL (≈ 6.04 µM)
- Activity (Staphylococcus aureus [9]): Active
- Activity (Staphylococcus aureus [13]): 99.9%
- PAE (Staphylococcus aureus [14]): 1.58 h
- MIC (Staphylococcus aureus [3]): 0.5 µg/mL (≈ 1.51 µM)

SMILES: O=[N+]([O-])c1ccc2[nH]cc(CN3CCN(Cc4ccc(C(F)(F)F)cc4N4CCCC4)CC3)c2c1
- MIC (Staphylococcus aureus [1]): 16 µg/mL (≈ 32.8 µM)
- MIC (Bacillus cereus): 16 µg/mL (≈ 32.8 µM)
- MIC (Ralstonia solanacearum): 32 µg/mL (≈ 65.6 µM)
- MIC (Pseudomonas syringae): 32 µg/mL (≈ 65.6 µM)
- MIC (Escherichia coli [2]): 32 µg/mL (≈ 65.6 µM)
- MIC (Staphylococcus aureus [3]): 16 µg/mL (≈ 32.8 µM)

SMILES: COc1ccc2[nH]cc(CN3CCN(Cc4ccc(C(F)(F)F)cc4N4CCCC4)CC3)c2c1
- MIC (Staphylococcus aureus [1]): 8 µg/mL (≈ 16.9 µM)
- MIC (Bacillus cereus): 16 µg/mL (≈ 33.9 µM)
- MIC (Ralstonia solanacearum): 16 µg/mL (≈ 33.9 µM)
- MIC (Pseudomonas syringae): 16 µg/mL (≈ 33.9 µM)
- MIC (Escherichia coli [2]): 32 µg/mL (≈ 67.7 µM)
- MIC (Staphylococcus aureus [3]): 16 µg/mL (≈ 33.9 µM)

SMILES: FC(F)(F)c1ccc(CN2CCN(Cc3c[nH]c4ccc(Br)cc34)CC2)c(N2CCCC2)c1
- MBC (Escherichia coli [4]): 32 µg/mL (≈ 61.4 µM)
- MIC (Staphylococcus aureus [1]): 8 µg/mL (≈ 15.3 µM)
- MBC (Staphylococcus aureus [7]): 16 µg/mL (≈ 30.7 µM)
- MBC (Staphylococcus aureus [8]): 16 µg/mL (≈ 30.7 µM)
- MIC (Bacillus cereus): 8 µg/mL (≈ 15.3 µM)
- MIC (Ralstonia solanacearum): 32 µg/mL (≈ 61.4 µM)
- MIC (Pseudomonas syringae): 32 µg/mL (≈ 61.4 µM)
- MIC (Escherichia coli [2]): 32 µg/mL (≈ 61.4 µM)
- MIC (Staphylococcus aureus [3]): 8 µg/mL (≈ 15.3 µM)

SMILES: CO[C@H]1/C=C/O[C@@]2(C)Oc3c(C)c(O)c4c(O)c(c(/C=N/N5CCN(C)CC5)c(O)c4c3C2=O)NC(=O)/C(C)=C\C=C\[C@H](C)[C@H](O)[C@@H](C)[C@@H](O)[C@@H](C)[C@H](OC(C)=O)[C@@H]1C [RIFAMPIN]
- MBC (Escherichia coli [4]): 8 µg/mL (≈ 9.72 µM)
- MIC (Staphylococcus aureus [1]): 0.25 µg/mL (≈ 0.304 µM)
- PAE (Staphylococcus aureus [12]): 3.45 h
- Activity (Staphylococcus aureus [6]): Active
- MBC (Staphylococcus aureus [7]): 1 µg/mL (≈ 1.22 µM)
- MBC (Staphylococcus aureus [8]): 2 µg/mL (≈ 2.43 µM)
- Activity (Staphylococcus aureus [9]): Active
- PAE (Staphylococcus aureus [15]): 1.8 h
- Activity (Staphylococcus aureus [13]): 99.9%
- MIC (Escherichia coli [2]): 4 µg/mL (≈ 4.86 µM)
- MIC (Staphylococcus aureus [3]): 0.25 µg/mL (≈ 0.304 µM)

SMILES: N#Cc1ccc2[nH]cc(CN3CCN(Cc4ccc(Cl)cc4Cl)CC3)c2c1
- MIC (Staphylococcus aureus [1]): 8 µg/mL (≈ 20 µM)
- MIC (Bacillus cereus): 8 µg/mL (≈ 20 µM)
- MIC (Ralstonia solanacearum): 32 µg/mL (≈ 80.1 µM)
- MIC (Pseudomonas syringae): 32 µg/mL (≈ 80.1 µM)
- MIC (Escherichia coli [2]): 32 µg/mL (≈ 80.1 µM)
- MIC (Staphylococcus aureus [3]): 16 µg/mL (≈ 40.1 µM)

SMILES: Cn1cc(CN2CCN(Cc3ccc(Cl)cc3Cl)CC2)c2cc(F)ccc21
- MIC (Staphylococcus aureus [1]): 8 µg/mL (≈ 19.7 µM)
- MIC (Bacillus cereus): 8 µg/mL (≈ 19.7 µM)
- MIC (Ralstonia solanacearum): 32 µg/mL (≈ 78.8 µM)
- MIC (Pseudomonas syringae): 32 µg/mL (≈ 78.8 µM)
- MIC (Escherichia coli [2]): 32 µg/mL (≈ 78.8 µM)
- MIC (Staphylococcus aureus [3]): 8 µg/mL (≈ 19.7 µM)

SMILES: Fc1ccc2[nH]cc(CN3CCN(Cc4ccc(C(F)(F)F)cc4N4CCCC4)CC3)c2c1
- MIC (Staphylococcus aureus [1]): 8 µg/mL (≈ 17.4 µM)
- MIC (Bacillus cereus): 8 µg/mL (≈ 17.4 µM)
- MIC (Ralstonia solanacearum): 128 µg/mL (≈ 278 µM)
- MIC (Pseudomonas syringae): 128 µg/mL (≈ 278 µM)
- MIC (Escherichia coli [2]): 128 µg/mL (≈ 278 µM)
- MIC (Staphylococcus aureus [3]): 16 µg/mL (≈ 34.7 µM)

SMILES: N#Cc1ccc2[nH]cc(CN3CCN(Cc4ccc(C(F)(F)F)cc4N4CCCC4)CC3)c2c1
- MIC (Staphylococcus aureus [1]): 16 µg/mL (≈ 34.2 µM)
- MIC (Bacillus cereus): 16 µg/mL (≈ 34.2 µM)
- MIC (Ralstonia solanacearum): 128 µg/mL (≈ 274 µM)
- MIC (Pseudomonas syringae): 128 µg/mL (≈ 274 µM)
- MIC (Escherichia coli [2]): 128 µg/mL (≈ 274 µM)
- MIC (Staphylococcus aureus [3]): 16 µg/mL (≈ 34.2 µM)
